In publication PMC6359037, “Effects of Piperazine Derivative on Paclitaxel Pharmacokinetics” (Pharmaceutics, 2019):
Read-outs that look alike come from different tables or passages of the source.

Legend:
MCF-7/ADR cells [1] = experiment: Cytotoxicity (toxic effect) of each piperazine derivative alone, SRB assay; format: cell-based, human; conditions: 2 h incubation
Description: The MDR human breast cancer cell line MCF-7/ADR was maintained in RPMI 1640, supplemented with 2 mM L-glutamine, 10 mM HEPES, 24 mM NaHCO3, 10% fetal bovine serum, and 1% antibiotic-antimycotic agent at 37 °C in a humidified 5% CO2 atmosphere.
(§1) The cytotoxicity of each piperazine derivative was examined in the cells using the sulforhodamine B (SRB) assay. The changes in IC50 values of DNM, P-gp substrate anticancer drug were estimated in the presence of piperazine derivatives at a concentration of 100 μM. The details of the cytotoxicity assay were described in our previous report. […] The IC50 values were calculated with the Table Curve Windows program. The assay was performed in triplicate.

P-gp = molecular target: T1, P-gp (Homo sapiens, UniProt P08183); experiment: [3H]-DNM efflux study in P-gp overexpressing cells; format: cell-based; conditions: control: tritium-labeled DNM alone, 1 h, MCF-7/ADR cells
T1 construct: uptake (A) and efflux (B) of [^3H]-DNM in MCF-7/ADR cells; endogenous in cells; host or cells: MCF-7/ADR
Description: Tritium-labeled P-gp substrate uptake and efflux studies were performed using the modified Harker and Sikic method. […] For the efflux study, cells were incubated with 0.05 μM tritium-labeled DNM for 1 h and subsequently in the absence or presence of 100 μM of pre-selected derivatives for another 1 h after removing 0.05 μM of the tritium-labeled DNM. The uptake and efflux values based on the radioactivity estimated by Liquid Scintillation Counting were normalized to those of 1 × 10^6 cells. The detailed procedures have been reported previously.

MCF-7/ADR cells [2] = experiment: Cytotoxicity assay (SRB): change of DNM IC50 in the presence of piperazine derivatives; format: cell-based; conditions: Homo sapiens, NCI/ADR-RES, DNM alone (negative control)
Description: as §1, with “The changes in IC50 values of DNM, P-gp substrate anticancer drug were estimated in the presence of piperazine derivatives at a concentration of 100 μM.” left out

[3] = PTX pharmacokinetics in rats, alone or orally co-administered with compound 4; format: in vivo, Sprague-Dawley rats; conditions: for AUC(0-inf): read-out: AUCinf of PTX; for k el: read-out: ke of PTX (converted); for half-life: read-out: t1/2 of PTX (converted)
Description: All the animal experiments were performed using six-week-old male Sprague-Dawley rats (200–235 g) under the procedures granted by the Ewha Womans University Institutional Animal Care and Use Committee (IACUC) (No. 2012-01-019), Korea.
PTX at 2 mg/mL was prepared immediately prior to use with a commercial formulation of Taxol® (Cremophor® EL, anhydrous ethanol and isotonic saline (1:1:4, v/v/v)). Compound 4 (N-(4-(4-bromophenyl)thiazol-2-yl)-2-(N-(2-(4-((4-chlorophenyl)(phenyl)methyl)piperazin-1-yl)-2-oxoethyl)acetamido)acetamide) was prepared using a process similar to PTX formulation for oral administration.
For intravenous injection of 2 mg/kg of PTX (IV) and oral administration of 25 mg/kg of PTX (PO) with 0, 2, or 5 mg/kg of compound 4, the rats were divided into 4 groups on the day. The common carotid artery was catheterized for blood sampling. Blood sampling was conducted at 0, 0.033, 0.083, 0.25, 0.5, 1, 2, 3, 4, 6, 10, and 24 h for the IV group and 0, 0.25, 0.5, 1, 2, 3, 4, 6, 8, 10, and 24 h for PO groups.
Prepared plasma samples mixed with internal standard (4-hydroxybenzoic acid n-hexyl ester) were analyzed by the HPLC system.
WinNonlin® Professional version 5.2 software (Pharsight Corporation, Mountain View, CA, USA) was used to estimate the PK parameters following intravenous or oral PTX administrations to the rats. Non-compartmental analysis was performed using the plasma PTX concentration–time profiles to obtain the following PK parameters: Area under the plasma concentration–time curve from zero time to infinity (AUCinf), elimination half-life (t1/2), apparent volume of distribution after oral administration (Vz/F), and oral clearance (Cl/F). The maximum plasma concentration (Cmax) and the time required to reach Cmax (Tmax) were directly measured from the plasma PTX concentration–time curve. The absolute BA and relative BA (AB and RB, respectively) of PTX were calculated using the respective formulas below:AB (%) = AUC po/AUC iv × IV dose/PO dose × 100 RB (%) = AUC po co–administration/AUC po control × 100

[4] = design: method as in doi:10.1016/S0378-5173(98)00188-4; conditions: cited from earlier work
P-glycoprotein (P-gp) = test system: P-glycoprotein (P-gp); design: method as in PMID 12608532; conditions: cited from earlier work
human P-gp membrane = human P-gp membrane (Homo sapiens, UniProt P08183); experiment: P-glycoprotein ATPase activity assay; conditions: 100 μM
Description: The rate of phosphate release per mg membrane protein represented the ATPase activity by converting to the relative ratio versus control value.

MES-SA/Dx5 = test system: MES-SA/Dx5; design: method as in PMID 19275716; conditions: xenograft mice with MES-SA/Dx5 (P-gp overexpressed) vs parental cells; cited from earlier work
[5] = PTX 25 mg/kg PO alone (oral control)
[6] = male, Sprague-Dawley, rat, plasma, PTX 2 mg/kg IV (IV control)
[7] = male, Sprague-Dawley, rat, plasma, PTX 25 mg/kg PO alone (oral control)

Chain of human P-gp membrane (P08183 whole entry): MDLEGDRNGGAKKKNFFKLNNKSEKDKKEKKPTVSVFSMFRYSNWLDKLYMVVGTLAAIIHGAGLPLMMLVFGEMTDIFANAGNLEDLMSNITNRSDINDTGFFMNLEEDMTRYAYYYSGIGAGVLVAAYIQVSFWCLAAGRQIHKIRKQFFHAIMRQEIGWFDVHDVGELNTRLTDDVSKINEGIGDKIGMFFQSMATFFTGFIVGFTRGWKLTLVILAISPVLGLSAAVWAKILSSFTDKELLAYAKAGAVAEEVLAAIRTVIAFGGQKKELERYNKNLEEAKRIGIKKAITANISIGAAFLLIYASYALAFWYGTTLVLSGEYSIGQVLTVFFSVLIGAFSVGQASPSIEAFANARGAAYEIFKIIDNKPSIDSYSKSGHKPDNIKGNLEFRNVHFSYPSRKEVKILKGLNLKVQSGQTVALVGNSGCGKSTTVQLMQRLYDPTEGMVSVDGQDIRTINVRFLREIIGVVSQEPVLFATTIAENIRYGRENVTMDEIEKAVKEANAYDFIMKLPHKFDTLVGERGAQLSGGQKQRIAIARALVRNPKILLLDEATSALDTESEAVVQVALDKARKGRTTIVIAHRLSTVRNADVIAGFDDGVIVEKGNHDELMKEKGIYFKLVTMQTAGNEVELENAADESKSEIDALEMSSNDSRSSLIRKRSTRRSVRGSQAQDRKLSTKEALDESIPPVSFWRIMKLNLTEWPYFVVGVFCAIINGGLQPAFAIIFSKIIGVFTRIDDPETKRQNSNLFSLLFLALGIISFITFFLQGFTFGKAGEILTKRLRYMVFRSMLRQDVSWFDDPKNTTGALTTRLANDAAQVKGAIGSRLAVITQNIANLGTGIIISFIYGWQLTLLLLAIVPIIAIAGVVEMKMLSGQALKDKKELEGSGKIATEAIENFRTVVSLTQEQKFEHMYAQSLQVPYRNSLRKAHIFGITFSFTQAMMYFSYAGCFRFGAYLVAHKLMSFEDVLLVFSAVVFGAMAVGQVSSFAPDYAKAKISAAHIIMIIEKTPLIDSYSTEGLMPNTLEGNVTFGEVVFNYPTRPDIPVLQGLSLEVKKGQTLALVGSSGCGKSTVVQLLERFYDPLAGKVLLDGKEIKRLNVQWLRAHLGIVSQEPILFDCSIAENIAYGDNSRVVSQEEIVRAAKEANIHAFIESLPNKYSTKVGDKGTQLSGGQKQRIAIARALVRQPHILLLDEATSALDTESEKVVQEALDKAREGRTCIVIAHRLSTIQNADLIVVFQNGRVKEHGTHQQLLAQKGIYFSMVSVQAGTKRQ
T1 sequence (P08183 whole entry): as above

| Structure (SMILES) | cell survival ratio (MCF-7/ADR cells [1]; 5 μM) | cell survival ratio (MCF-7/ADR cells [1]; 10 μM) | cell survival ratio (MCF-7/ADR cells [1]; 25 μM) | cell survival ratio (MCF-7/ADR cells [1]; 50 μM) | cell survival ratio (MCF-7/ADR cells [1]; 100 μM) | also measured |
| --- | --- | --- | --- | --- | --- | --- |
| COc1ccc(CNC(=O)CN(CC(=O)N2CCN(C(c3ccccc3)c3ccc(Cl)cc3)CC2)C(=O)c2ccccc2)cc1 (stereo not shown) [Compound 5] | 101.71 | 87.22 | 83.46 | 83.84 | 81.94 |  |
| COc1cccc2c1C(=O)c1c(O)c3c(c(O)c1C2=O)C[C@@](O)(C(C)=O)C[C@@H]3O[C@H]1C[C@H](N)[C@H](O)[C@H](C)O1 [DNM, Daunomycin] |  |  |  |  |  | [3H]-DNM efflux (P-gp): 63.0 ± 3.3%; IC50 (MCF-7/ADR cells [2]): 31.7 µM |
| CC(=O)O[C@H]1C(=O)[C@@]2(C)[C@H]([C@H](OC(=O)c3ccccc3)[C@]3(O)C[C@H](OC(=O)[C@H](O)[C@@H](NC(=O)c4ccccc4)c4ccccc4)C(C)=C1C3(C)C)[C@]1(OC(C)=O)CO[C@@H]1C[C@@H]2O [PTX, Paclitaxel] |  |  |  |  |  | AB (absolute BA) of PTX ([3]; PTX 2 mg/kg IV (IV control)): 100.0%; Cl/F of PTX ([3]; PTX 2 mg/kg IV (IV control)): 614 ± 123 mL/h; Vz/F of PTX ([3]; PTX 2 mg/kg IV (IV control)): 1754 ± 419 mL; AB (absolute BA) of PTX [3, 5]: 7.1%; Cl/F of PTX [3, 5]: 8721 ± 2040 mL/h; Cmax [3, 6]: 2970 ± 428 ng/mL; AUC(0-inf) [3, 6]: 835 ± 155 ng·h/mL; k el [3, 6]: 0.000103 s⁻¹; half-life [3, 6]: 2.06 ± 0.8 h; Cmax [3, 7]: 189 ± 76 ng/mL; Tmax [3, 7]: 2 h; AUC(0-inf) [3, 7]: 745 ± 208 ng·h/mL; Vd/F ([3]; male, Sprague-Dawley, rat, plasma, PTX 25 mg/kg PO alone (oral control), read-out: Vz/F of PTX): 40.6 L; k el [3, 7]: 6.47e-05 s⁻¹; half-life [3, 7]: 3.1 ± 0.8 h; bioavailability of PTX [4]: below 10%; share of orally administered PTX excluded from the GI track by P-gp (P-glycoprotein (P-gp)): approximately 50% |
| O=C(CN(CC(=O)N1CCN(C(c2ccccc2)c2ccc(Cl)cc2)CC1)C(=O)Cc1ccccc1)Nc1nc(-c2ccc(Cl)cc2)cs1 (stereo not shown) [Compound 2] | 102.70 | 102.87 | 86.94 | 86.10 | 87.75 | P-gp ATPase activity compared to the control (human P-gp membrane): 1.3 fold; P-gp ATPase activity, ratio of the control (blank) (human P-gp membrane): 1.29 |
| CC(=O)N(CC(=O)Nc1nc(-c2ccc(Br)cc2)cs1)CC(=O)N1CCN(C(c2ccccc2)c2ccc(Cl)cc2)CC1 (stereo not shown) [Compound 4, N-(4-(4-bromophenyl)thiazol-2-yl)-2-(N-(2-(4-((4-chlorophenyl)(phenyl)methyl)piperazin-1-yl)-2-oxoethyl)acetamido)acetamide] | 100.76 | 98.50 | 96.14 | 96.90 | 87.63 | P-gp ATPase activity compared to the control (human P-gp membrane): 1.2 fold; P-gp ATPase activity, ratio of the control (blank) (human P-gp membrane): 1.18 |
| O=C(CN(CC(=O)N1CCN(C(c2ccccc2)c2ccc(Cl)cc2)CC1)C(=O)c1ccc2ccccc2c1)Nc1nc(-c2ccc(Cl)cc2)cs1 (stereo not shown) [Compound 3] | 102.03 | 101.69 | 102.24 | 86.26 | 85.90 |  |
| O=C(C(c1ccccc1)c1ccc([125I])cc1)N1CCN(CC(O)COc2cccc3ncccc23)CC1 (stereo not shown) [radio-iodinated piperazine derivative, 5-[3-{4-(2-phenyl-2-(4-[125I]iodo-phenyl)acetyl)piperazin-1-yl}-2-hydroxypropoxy] quinoline] |  |  |  |  |  | shortening of absorption half-life (MES-SA/Dx5): ~10 fold; shortening of mean residence time (MES-SA/Dx5): 50% |
| CC(C)(C)c1cc(NC(=O)CN(CC(=O)N2CCN(C(c3ccccc3)c3ccc(Cl)cc3)CC2)C(=O)c2ccccc2)no1 (stereo not shown) [Compound 6] | 100.72 | 101.38 | 100.76 | 85.68 | 82.91 |  |
| O=C(CN(CC(=O)N1CCN(C(c2ccccc2)c2ccc(Cl)cc2)CC1)C(=O)c1ccc2ccccc2c1)NCc1ccccc1 (stereo not shown) [Compound 1] | 89.77 | 90.47 | 89.23 | 88.56 | 87.21 |  |
